In US7271188B2, “Imidazolidine derivatives” (Chugai Seikayu Kabushiki Kaisha, priority 2003, dated 2007):
Like-named read-outs stand apart in the source and are kept apart here.

How the values were obtained:
human androgen receptor [1] = biological target: T1, human androgen receptor (Homo sapiens, UniProt P10275); experiment: Test Example 2: antagonist effect, androgen receptor reporter gene assay in 11A11B2 cells with 0.1 nmol/L DHT; format: cell-based
T1 construct: expressed in transfected cells; host or cells: HeLa cells (clone 11A11B2), stably co-transfected with MMTV-Luc-Hyg reporter
T1 sequence (P10275 1-920): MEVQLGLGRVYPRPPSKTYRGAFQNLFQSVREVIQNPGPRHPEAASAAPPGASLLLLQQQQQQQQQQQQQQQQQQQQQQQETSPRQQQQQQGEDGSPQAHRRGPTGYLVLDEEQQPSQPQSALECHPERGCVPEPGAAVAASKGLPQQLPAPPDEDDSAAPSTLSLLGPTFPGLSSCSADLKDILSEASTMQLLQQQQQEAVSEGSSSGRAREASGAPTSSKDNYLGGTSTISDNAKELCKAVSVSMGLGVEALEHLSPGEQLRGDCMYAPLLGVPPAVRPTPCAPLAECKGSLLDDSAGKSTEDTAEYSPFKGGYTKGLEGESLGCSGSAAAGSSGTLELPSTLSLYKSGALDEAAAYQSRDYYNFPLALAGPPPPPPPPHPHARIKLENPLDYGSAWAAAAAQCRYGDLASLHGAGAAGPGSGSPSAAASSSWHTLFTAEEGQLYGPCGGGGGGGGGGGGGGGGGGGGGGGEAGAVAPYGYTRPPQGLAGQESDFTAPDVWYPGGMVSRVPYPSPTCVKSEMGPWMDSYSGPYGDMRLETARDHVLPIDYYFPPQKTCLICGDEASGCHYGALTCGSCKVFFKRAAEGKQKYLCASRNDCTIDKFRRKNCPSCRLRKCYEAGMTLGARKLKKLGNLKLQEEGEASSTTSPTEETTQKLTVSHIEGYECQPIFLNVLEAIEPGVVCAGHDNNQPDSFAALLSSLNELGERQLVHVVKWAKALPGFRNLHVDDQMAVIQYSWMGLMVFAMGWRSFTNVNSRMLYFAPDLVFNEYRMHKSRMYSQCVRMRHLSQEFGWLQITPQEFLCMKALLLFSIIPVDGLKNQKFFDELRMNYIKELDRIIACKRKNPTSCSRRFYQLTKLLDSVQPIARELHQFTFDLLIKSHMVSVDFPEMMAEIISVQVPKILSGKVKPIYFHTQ
Procedure: (§1) HeLa cells (purchased from Dai-Nippon Seiyaku K. K.) were cultured overnight in Dulbecco's Modified Eagle Medium containing no phenol red, but containing 3% charcoal-treated fetal bovine serum (hereafter referred to as DCC-FBS) (this medium is hereafter referred to as phenol-red-free DMEM). An MMTV-Luc-Hyg vector (reporter plasmid with […], containing an androgen response element and a hygromycin resistance gene: a vector obtained by substituting the chloramphenicol acetyl transferease gene of a GM-CAT vector (A.T.C.C No. 67282) purchased from the A.T.C.C. for the firefly luciferase gene, and inserting a hygromycin resistance gene), and pSG5-hAR-neo (human androgen receptor expression vector: a vector having an androgen receptor gene under the control of the SV40 promoter, and having a neomycin resistance gene inserted as a drug resistance gene) were transfected into the HeLa cells using an FuGENE™ 6 Transfection Reagent (obtained from Roche).
(§2) The clone cells thus obtained (11A11B2 cells) were maintained and propagated using DMEM containing 400 μg/mL neomycin, 200 μg/mL hygromycin and 10% FBS, and were propagated using phenol-red-free DMEM containing 10% DCC-FBS three to four days prior to the performance of an androgen receptor reporter gene assay.
The 11A11B2 cells were inoculated in a white clear-bottomed 96-well microplate (COSTAR) so that the cell concentration was 1.0×10^4/well, and were cultured overnight using phenol-red-free DMEM containing 3% DCC-FBS (hereafter referred to as the assay medium). The assay medium containing DHT was added so that the final concentration of DHT was 0.1 nmol/L, and samples of the assay medium containing the compounds of the examples or compounds of the comparative examples were added so that the final concentrations of the compounds of the examples or compounds of the comparative examples were 1, 10, 100, 1,000 and 10,000 nmol/L, respectively. After culturing for 48 hours, the transcription activity values were measured. The transcription activity was measured using a Bright-Glo™ Luciferase Assay System (Promega).
(§3) The transcription activity rates of the compounds of the examples were calculated from the transcription activity measured by the abovementioned method, with the transcription activity value obtained at 0.1 nmol/L DHT taken as 100%, and the transcription activity value in the case of the assay medium alone taken as 0%.
Accordingly, the value obtained by subtracting the transcription activity rate of Test Example 1 (Investigation of Agonist Activity) from the transcription activity rate of Test Example 2 (Investigation of Antagonist Activity) was used to calculate the compound concentration at which a transcription activity of 50% was shown (IC50 value). The IC50 value was calculated from a linear equation for two points on either side of 50%.

human androgen receptor [2] = biological target: T1, human androgen receptor; experiment: Test Example 1: agonist effect, androgen receptor reporter gene assay in 11A11B2 cells; format: cell-based; settings: compound concentration showing transcription activity of 5% (0.1 nmol/L DHT = 100%, assay medium alone = 0%), 48 hours
Procedure: as §1, §2
The 11A11B2 cells were inoculated in a white clear-bottomed 96-well microplate (COSTAR) so that the cell concentration was 1.0×10^4/well, and were cultured overnight using phenol-red-free DMEM containing 3% DCC-FBS (hereafter referred to as the assay medium). Samples of the assay medium containing the compounds of the examples and compounds of the comparative examples were added so that the final concentrations of the compounds of the examples and compounds of the comparative examples were 1, 10, 100, 1,000 and 10,000 nmol/L (however, in the case of the compounds of Examples 1 and 2, the compounds were added so that the final concentrations were 1, 10, 100, 1,000, 10,000 and 100,000 nmol/L), and the cells were cultured for 48 hours, after which the transcription activity value was measured. The transcription activity was measured using a Bright-Glo™ Luciferase Assay System (Promega).
as §3, with “0%. The compound concentration showing a transcription activity of 5% (EC5 value) was calculated from a linear equation for two points on either side of 5%.” for “0%.”

androgen receptor = androgen receptor (Homo sapiens, UniProt P10275); settings: at a concentration of 10 μmol/L; cited from earlier work
[3] = prostate cancer patients treated with flutamide; cited from earlier work
[4] = reports; cited from earlier work
castrated rats = settings: continuously administered to castrated rats for two weeks; cited from earlier work
[5] = concentration giving 50% transcription activity after subtracting the Test Example 1 agonist rate, 0.1 nmol/L DHT, 11A11B2 cells, 48 hours, read-out: IC50

| Compound | IC50 (human androgen receptor [1]; [5]) [nM] | EC5 (human androgen receptor [2]) [nM] | also measured |
| --- | --- | --- | --- |
| CC(=O)NCCN1C(=S)N(c2ccc(C#N)c(C(F)(F)F)c2)C(=O)C1(C)C [Comparative Example 2, 4-[3′-(2″-N-acetylaminoethyl)-4′,4′-dimethyl-5′-oxo-2′-thioxo-1′-imidazolidinyl]-2-trifluoromethylbenzonitrile, reference compound] | 800 | 3000 |  |
| CNS(=O)(=O)CCCCN1C(=S)N(c2ccc(C#N)c(C(F)(F)F)c2)C(=O)C1(C)C [Example 16, 4-[3′-(4″-N-methylaminosulfonylbutyl)-4′,4′-dimethyl-5′-oxo-2′-thioxo-1′-imidazolidinyl]-2-trifluoromethylbenzonitrile] | 700 | >10000 |  |
| CC(C)(O)C(=O)Nc1ccc([N+](=O)[O-])c(C(F)(F)F)c1 [Comparative Example 4, hydroxyflutamide] |  | 10 | androgen receptor transcription activity (androgen receptor): increase in androgen receptor transcription activity; concentration in the blood [3]: several |
| CC1(C)C(=O)N(c2ccc(C#N)c(C(F)(F)F)c2)C(=S)N1CCCCCCS(N)(=O)=O [Example 3, 4-[3′-(6″-aminosulfonylhexyl)-4′,4′-dimethyl-5′-oxo-2′-thioxo-1′-imidazolidinyl]-2-trifluoromethylbenzonitrile] | 200 | 3000 |  |
| CN(C)S(=O)(=O)CCCCCN1C(=S)N(c2ccc(C#N)c(C(F)(F)F)c2)C(=O)C1(C)C [Example 10, 4-[3′-(5″-N,N-dimethylaminosulfonylpentyl)-4′,4′-dimethyl-5′-oxo-2′-thioxo-1′-imidazolidinyl]-2-trifluoromethylbenzonitrile] | 200 | 2000 |  |
| CC1(C)C(=O)N(c2ccc(C#N)c(C(F)(F)F)c2)C(=S)N1CCCCS(N)(=O)=O [Example 2, 4-[3′-(4″-aminosulfonylbutyl)-4′,4′-dimethyl-5′-oxo-2′-thioxo-1′-imidazolidinyl]-2-trifluoromethylbenzonitrile] | 600 | >100000 |  |
| CN(C)S(=O)(=O)CCCCN1C(=S)N(c2ccc(C#N)c(C(F)(F)F)c2)C(=O)C1(C)C [Example 8, 4-[3′-(4″-N,N-dimethylaminosulfonylbutyl)-4′,4′-dimethyl-5′-oxo-2′-thioxo-1′-imidazolidinyl]-2-trifluoromethylbenzonitrile] |  | 2000 | IC50 (human androgen receptor [1]): 100 nM |
| CC(O)(CS(=O)(=O)c1ccc(F)cc1)C(=O)Nc1ccc(C#N)c(C(F)(F)F)c1 (stereo not drawn) [Comparative Example 3, bicalutamide] |  |  | side effects [4]: liver toxicity |
| CC(=O)O[C@]1(C(C)=O)CC[C@H]2[C@@H]3C=C(Cl)C4=CC(=O)[C@@H]5C[C@@H]5[C@]4(C)[C@H]3CC[C@@]21C [cyproterone acetate] |  |  | weight of the prostate gland (castrated rats): increase in the weight of the prostate gland |
| CC(C)C(=O)Nc1ccc([N+](=O)[O-])c(C(F)(F)F)c1 [flutamide] |  |  | side effects [4]: liver toxicity |
| CN1C(=S)N(c2ccc(C#N)c(C(F)(F)F)c2)C(=O)C1(C)C [Comparative Example 1, 4-(5-oxo-2-thioxo-3,4,4-trimethyl-1-imidazolidinyl)-2-trifluoromethylbenzonitrile, reference compound] |  | 0.08 | IC50 (human androgen receptor [1]): 1 nM |
| CC1(C)C(=O)N(c2ccc(C#N)c(C(F)(F)F)c2)C(=S)N1CCCS(N)(=O)=O [Example 1, 4-[3′-(3″-aminosulfonylpropyl)-4′,4′-dimethyl-5′-oxo-2′-thioxo-1′-imidazolidinyl]-2-trifluoromethylbenzonitrile] |  | 20000 | IC50 (human androgen receptor [1]): 200 nM |
| CC1(C)C(=O)N(c2ccc(C#N)c(C(F)(F)F)c2)C(=S)N1CCS(N)(=O)=O [Example 18, 4-[3′-(2″-aminosulfonylethyl)-4′,4′-dimethyl-5′-oxo-2′-thioxo-1′-imidazolidinyl]-2-trifluoromethylbenzonitrile] |  | 7000 | IC50 (human androgen receptor [1]): 600 nM |
| CC(=O)O[C@]1(C(C)=O)CC[C@H]2[C@@H]3C=C(Cl)C4=CC(=O)CC[C@]4(C)[C@H]3CC[C@@]21C [chlormadinone acetate] |  |  | weight of the prostate gland (castrated rats): increase in the weight of the prostate gland |
| CC1(C)C(=O)N(c2ccc(C#N)c(C(F)(F)F)c2)C(=S)N1CCCCCS(N)(=O)=O [Example 7, 4-[3′-(5″-aminosulfonylpentyl)-4′,4′-dimethyl-5′-oxo-2′-thioxo-1′-imidazolidinyl]-2-trifluoromethylbenzonitrile] | 900 | >10000 |  |
